Measurements as given in patent US10821115B2, “Compounds that inhibit Mcl-1 protein” (priority 2017, dated 2020).
Where two headings read alike, the source gives them in different places.

Tests used:
[1] = tested on: human multiple myeloma cell line, OPM-2; assay: Cell viability assay (OPM-2 10 FBS), CellTiter-Glo; format: cell-based
Outline: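 Steps: plate cells at 3000/well in 10% FBS growth medium, add serially diluted compound, incubate 16 h at 37 °C with 5% CO2, add detection reagent and read luminescence after 25 min. A 4-parameter logistic model gives IC50.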

[2] = target: recombinant human Mcl-1 (residues 171-327) / Bim interaction (Homo sapiens (Human), UniProt Q07820); assay: biochemical; format: binding; conditions: TR-FRET, Mcl-1(171-327) / biotin-Bim (51-76); read-out: Mcl-1 HTRF IC50
Sequence of recombinant human Mcl-1 (residues 171-327) / Bim interaction (Q07820 171-327): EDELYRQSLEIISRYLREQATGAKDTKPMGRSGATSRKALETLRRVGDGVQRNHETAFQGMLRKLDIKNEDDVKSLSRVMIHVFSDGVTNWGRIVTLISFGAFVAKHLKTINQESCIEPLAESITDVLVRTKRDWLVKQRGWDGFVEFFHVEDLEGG

[3] = Homo sapiens, OPM-2, 16 h, read-out: OPM-2 10% FBS IC50 IP, OPM-2 cells, 10% FBS, 16 h, CellTiter-Glo
[4] = read-out: OPM-2 10% FBS IC50 IP, OPM-2 cells, 10% FBS, 16 h, CellTiter-Glo

Row | SMILES | IC50 [1, 3] | IC50 [2] | IC50 [1, 4]
1 | CO[C@@]1(CC(=O)N2CCN(C)CC2)/C=C/C[C@H](C)[C@@H](C)S(=O)(=O)NC(=O)c2ccc3c(c2)N(C[C@@H]2CC[C@H]21)C[C@@]1(CCCc2cc(Cl)ccc21)CO3 [Example 100376, (1S,3′R,6′R,7′S,8′E,11′S,12′R)-6-chloro-7′-methoxy-11′,12′-dimethyl-7′-(2-(4-methyl-1-piperazinyl)-2-oxoethyl)-3,4-dihydro-2H,15′H-spiro[naphthalene-1,22′-[20]oxa[13]thia[1,14]diazatetracyclo [14.7.2.0~3,6~.0~19,24~]pentacosa[8,16,18,24]tetraen]-15′-one 13′,13′-dioxide] | 362 nM | 0.15 nM | –
2 | CO[C@@]1(CC(=O)N(C)CCN2CCOCC2)/C=C/C[C@H](C)[C@@H](C)S(=O)(=O)NC(=O)c2ccc3c(c2)N(C[C@@H]2CC[C@H]21)C[C@@]1(CCCc2cc(Cl)ccc21)CO3 [Example 100377, 2-((1S,3′R,6′R,7′S,8′E,11′S,12′R)-6-chloro-7′-methoxy-11′,12′-dimethyl-13′,13′-dioxido-15′-oxo-3,4-dihydro-2H-spiro[naphthalene-1,22′-[20]oxa[13]thia[1,14]diazatetracyclo [14.7.2.0~3,6~.0~19,24~]pentacosa[8,16,18,24]tetraen]-7′-yl)-N-methyl-N-(2-(4-morpholinyl)ethyl)acetamide] | 182 nM | 0.107 nM | –
3 | COC[C@]1(O)/C=C/C[C@H](C)[C@@H](C)S(=O)(=O)NC(=O)c2ccc3c(c2)N(C[C@@H]2CC[C@H]21)C[C@@]1(CCCc2cc(Cl)ccc21)CO3 [Example 100378, (1S,3′R,6′R,7′S,8′E,11′S,12′R)-6-chloro-7′-hydroxy-7′-(methoxymethyl)-11′,12′-dimethyl-3,4-dihydro-2H,15′H-spiro[naphthalene-1,22′-[20]oxa[13]thia[1,14]diazatetracyclo [14.7.2.0~3,6~.0~19,24~]pentacosa[8,16,18,24]tetraen]-15′-one 13′,13′-dioxide] | 111 nM | 0.037 nM | –
4 | CO[C@]1(CC2=NC(C)(C)CO2)/C=C/C[C@H](C)[C@@H](C)S(=O)(=O)NC(=O)c2ccc3c(c2)N(C[C@@H]2CC[C@H]21)C[C@@]1(CCCc2cc(Cl)ccc21)CO3 [Example 100380, (1S,3′R,6′R,7′R,8′E,11′S,12′R)-6-chloro-7′-((4,4-dimethyl-4,5-dihydro-1,3-oxazol-2-yl)methyl)-7′-methoxy-11′,12′-dimethyl-3,4-dihydro-2H,15′H-spiro[naphthalene-1,22′-[20]oxa[13]thia[1,14]diazatetracyclo [14.7.2.0~3,6~.0~19,24~]pentacosa[8,16,18,24]tetraen]-15′-one 13′,13′-dioxide] | 137 nM | 0.208 nM | –
5 | CO[C@]1(CCN(C)C)/C=C/C[C@H](C)[C@@H](C)S(=O)(=O)NC(=O)c2ccc3c(c2)N(C[C@@H]2CC[C@H]21)C[C@@]1(CCCc2cc(Cl)ccc21)CO3 [Example 100381, (1S,3′R,6′R,7′R,8′E,11′S,12′R)-6-chloro-7′-(2-(dimethylamino)ethyl)-7′-methoxy-11′,12′-dimethyl-3,4-dihydro-2H,15′H-spiro[naphthalene-1,22′-[20]oxa[13]thia[1,14]diazatetracyclo [14.7.2.0~3,6~.0~19,24~]pentacosa[8,16,18,24]tetraen]-15′-one 13′,13′-dioxide] | 2910 nM | 0.328 nM | –
6 | C[C@@H]1[C@@H](C)CCC[C@@](O)(C2CCN(C)CC2)[C@@H]2CC[C@H]2CN2C[C@@]3(CCCc4cc(Cl)ccc43)COc3ccc(cc32)C(=O)NS1(=O)=O [Example 100382, (1S,3′R,6′R,7′R,11′S,12′R)-6-chloro-7′-hydroxy-11′,12′-dimethyl-7′-(1-methyl-4-piperidinyl)-3,4-dihydro-2H,15′H-spiro[naphthalene-1,22′-[20]oxa[13]thia[1,14]diazatetracyclo [14.7.2.0~3,6~.0~19,24~]pentacosa[16,18,24]trien]-15′-one 13′,13′-dioxide] | – | 0.471 nM | 312 nM
7 | C[C@@H]1[C@@H](C)C/C=C/[C@](O)(c2cnccn2)[C@@H]2CC[C@H]2CN2C[C@@]3(CCCc4cc(Cl)ccc43)COc3ccc(cc32)C(=O)NS1(=O)=O [Example 100383, (1S,3′R,6′R,7′R,8′E,11′S,12′R)-6-chloro-7′-hydroxy-11′,12′-dimethyl-7′-(2-pyrazinyl)-3,4-dihydro-2H,15′H-spiro[naphthalene-1,22′-[20]oxa[13]thia[1,14]diazatetracyclo [14.7.2.0~3,6~.0~19,24~]pentacosa[8,16,18,24]tetraen]-15′-one 13′,13′-dioxide] | 3430 nM | 0.264 nM | –
8 | C[C@@H]1[C@@H](C)C/C=C/[C@@](O)(c2cccnc2)[C@@H]2CC[C@H]2CN2C[C@@]3(CCCc4cc(Cl)ccc43)COc3ccc(cc32)C(=O)NS1(=O)=O [Example 100384, (1S,3′R,6′R,7′S,8′E,11′S,12′R)-6-chloro-7′-hydroxy-11′,12′-dimethyl-7′-(3-pyridinyl)-3,4-dihydro-2H,15′H-spiro[naphthalene-1,22′-[20]oxa[13]thia[1,14]diazatetracyclo [14.7.2.0~3,6~.0~19,24~]pentacosa[8,16,18,24]tetraen]-15′-one 13′,13′-dioxide] | 729 nM | 0.821 nM | –
9 | C[C@@H]1[C@@H](C)C/C=C/[C@](O)(c2ncccc2F)[C@@H]2CC[C@H]2CN2C[C@@]3(CCCc4cc(Cl)ccc43)COc3ccc(cc32)C(=O)NS1(=O)=O [Example 100385, (1S,3′R,6′R,7′R,8′E,11′S,12′R)-6-chloro-7′-(3-fluoro-2-pyridinyl)-7′-hydroxy-11′,12′-dimethyl-3,4-dihydro-2H,15′H-spiro[naphthalene-1,22′-[20]oxa[13]thia[1,14]diazatetracyclo [14.7.2.0~3,6~.0~19,24~]pentacosa[8,16,18,24]tetraen]-15′-one 13′,13′-dioxide] | 144 nM | 0.144 nM | –
10 | C[C@@H]1[C@@H](C)CCC[C@@](O)(C2CCN(C)CC2)[C@@H]2CC[C@H]2CN2C[C@@]3(CCCc4cc(Cl)ccc43)COc3ccc(cc32)C(=O)NS1(=O)=O [Example 100386, (1S,3′R,6′R,7′R,11′S,12′R)-6-chloro-7′-hydroxy-11′,12′-dimethyl-7′-(1-methyl-4-piperidinyl)-3,4-dihydro-2H,15′H-spiro[naphthalene-1,22′-[20]oxa[13]thia[1,14]diazatetracyclo [14.7.2.0~3,6~.0~19,24~]pentacosa[16,18,24]trien]-15′-one 13′,13′-dioxide] | – | 4.02 nM | 7270 nM
11 | C[C@@H]1[C@@H](C)CCC[C@](O)(C2CCN(C)CC2)[C@@H]2CC[C@H]2CN2C[C@@]3(CCCc4cc(Cl)ccc43)COc3ccc(cc32)C(=O)NS1(=O)=O [Example 100387, (1S,3′R,6′R,7′S,11′S,12′R)-6-chloro-7′-hydroxy-11′,12′-dimethyl-7′-(1-methyl-4-piperidinyl)-3,4-dihydro-2H,15′H-spiro[naphthalene-1,22′-[20]oxa[13]thia[1,14]diazatetracyclo [14.7.2.0~3,6~.0~19,24~]pentacosa[16,18,24]trien]-15′-one 13′,13′-dioxide] | 3760 nM | 0.175 nM | –
12 | C[C@@H]1[C@@H](C)C/C=C/[C@@](O)(C#CCN2CCS(=O)(=O)CC2)[C@@H]2CC[C@H]2CN2C[C@@]3(CCCc4cc(Cl)ccc43)COc3ccc(cc32)C(=O)NS1(=O)=O [Example 100388, (1S,3′R,6′R,7′S,8′E,11′S,12′R)-6-chloro-7′-(3-(1,1-dioxido-4-thiomorpholinyl)-1-propyn-1-yl)-7′-hydroxy-11′,12′-dimethyl-3,4-dihydro-2H,15′H-spiro[naphthalene-1,22′-[20]oxa[13]thia[1,14]diazatetracyclo [14.7.2.0~3,6~.0~19,24~]pentacosa[8,16,18,24]tetraen]-15′-one 13′,13′-dioxide] | – | 1.17 nM | 2160 nM
13 | C[C@@H]1[C@@H](C)C/C=C/[C@@](O)(C#CCN2CCS(=O)(=O)CC2)[C@@H]2CC[C@H]2CN2C[C@@]3(CCCc4cc(Cl)ccc43)COc3ccc(cc32)C(=O)NS1(=O)=O [Example 100389, (1S,3′R,6′R,7′S,8′E,11′S,12′R)-6-chloro-7′-(3-(1,1-dioxido-4-thiomorpholinyl)-1-propyn-1-yl)-7′-hydroxy-11′,12′-dimethyl-3,4-dihydro-2H,15′H-spiro[naphthalene-1,22′-[20]oxa[13]thia[1,14]diazatetracyclo [14.7.2.0~3,6~.0~19,24~]pentacosa[8,16,18,24]tetraen]-15′-one 13′,13′-dioxide] | – | 0.101 nM | 114 nM
14 | CO[C@@]1(c2cccnc2)/C=C/C[C@H](C)[C@@H](C)S(=O)(=O)NC(=O)c2ccc3c(c2)N(C[C@@H]2CC[C@H]21)C[C@@]1(CCCc2cc(Cl)ccc21)CO3 [Example 100391, (1S,3′R,6′R,7′S,8′E,11′S,12′R)-6-chloro-7′-methoxy-11′,12′-dimethyl-7′-(3-pyridinyl)-3,4-dihydro-2H,15′H-spiro[naphthalene-1,22′-[20]oxa[13]thia[1,14]diazatetracyclo [14.7.2.0~3,6~.0~19,24~]pentacosa[8,16,18,24]tetraen]-15′-one 13′,13′-dioxide] | 282 nM | 0.441 nM | –
15 | CO[C@@]1(CCN(C)C)/C=C/C[C@H](C)[C@@H](C)S(=O)(=O)NC(=O)c2ccc3c(c2)N(C[C@@H]2CC[C@H]21)C[C@@]1(CCCc2cc(Cl)ccc21)CO3 [Example 100393, (1S,3′R,6′R,7′S,8′E,11′S,12′R)-6-chloro-7′-(2-(dimethylamino)ethyl)-7′-methoxy-11′,12′-dimethyl-3,4-dihydro-2H,15′H-spiro[naphthalene-1,22′-[20]oxa[13]thia[1,14]diazatetracyclo [14.7.2.0~3,6~.0~19,24~]pentacosa[8,16,18,24]tetraen]-15′-one 13′,13′-dioxide] | 211 nM | 0.164 nM | –
